Assay results taken from patent US6436373B1, “Oligomeric diarylbutadienes” (BASF Aktiengesellschaft, priority 1998, dated 2002).

Assay: UV absorption (λmax and specific absorbance E1^1)
Format: physicochemical
Conditions: for λmax.: UV absorption maximum, no unit or solvent printed; for E1^1: specific absorbance at λmax, solvent not given

Row | λmax. | E1^1 | SMILES
1 | 354 | 850 | N#C/C(=C/C=C(c1ccccc1)c1ccccc1)C(=O)OCCOC(=O)/C(C#N)=C\C=C(c1ccccc1)c1ccccc1 [Example 3]
2 | 336 | 800 | CCOC(=O)/C(=C/C=C(c1ccccc1)c1ccccc1)C(=O)OCCOC(=O)/C(=C\C=C(c1ccccc1)c1ccccc1)C(=O)OCC [Example 2]
